In patent US20130108653A1, “BIVALENT MOLECULES FOR HIV ENTRY INHIBITION” (priority 2009, published 2013):

System: JRCSF (CCR5-tropic)
Assay: Luciferase assay / single round infection in TZM-bl cells, JRCSF
Assay type: cell-based, HIV
Conditions: TZM-bl luciferase indicator cells; FIG. 20
Excerpt: FIGS. 10-14. Inhibitory effect of the bivalent molecules of the present invention on HIV spreading. The experiment is based on the activation of the luciferase gene upon infection of TZM-bl cells. X-axis depict 3 different dilutions of a virus stock (HXB2 (CRCX4-trop, virus 89.6 (Dual-trop) or JRCSF (CCR5-trop)) with unknown titer (1×, 5× and 25×). Y-axis depicts the amount of luminescence. Lower luminescence corresponds to greater inhibitory effect of the bivalent molecules of the present invention. (See also Example 4 elsewhere herein).
JRCSF is incubated in the presence of mol 500 in a concentration of 0.2 micrograms/ml and 0.1 micrograms/ml. JRCSF incubated without mol 500 is shown as a control. […]
The experiment is based on the activation of the luciferase gene upon infection of TZM-bl cells with 3 different virus strains (HXB2 (CRCX4-tropic), virus 89.6 (Dual-tropic) or JRCSF (CCR5-tropic)). The more luminescence measured, the greater activation of the luciferase gene has occurred, and the more inefficient the inhibition of infection has been by the molecule of the present invention […]
90 μl of Luciferin (britelite plus Perkin Elmer cat no: 6016761) is added to each well in order to start the chemo-luminescence reaction.
150 μl of the liquid is removed from each well and the luminescence is measured in a FLUO star Omega (BMG LABYECH Gmbh). […]

Substance: enfuvirtide
- neutralization of JR-CSF, single round infection, in words: very minor effects
